Source: ChEMBL document CHEMBL2034887, “Substituted phenoxypropyl-(R)-2-methylpyrrolidine aminomethyl ketones as histamine-3 receptor inverse agonists” (Bioorg Med Chem Lett, 2012)
The source made the active and inactive calls. The rule behind the calls is not given here.

What was measured:
Histamine H3 receptor [1] = target: Histamine H3 receptor (Rattus norvegicus, UniProt Q9QYN8); assay: Displacement of [3H]NAMH from rat histamine H3 receptor expressed in CHO cells; assay type: cell-based
Histamine H3 receptor [2] = target: T1, Histamine H3 receptor (Homo sapiens, UniProt Q9Y5N1); assay: Displacement of [3H]NAMH from human histamine H3 receptor expressed in CHO cells; assay type: cell-based
[3] = target: Histamine H1 receptor (Homo sapiens) (UniProt P35367); assay: Inhibition of human histamine H1 receptor at 10 uM
[4] = Plasma protein binding in rat; assay type: ADME, cell-free; details: read-out: PPB
[5] = target: Histamine H4 receptor (Homo sapiens) (UniProt Q9H3N8); assay: Inhibition of human histamine H4 receptor at 10 uM
[6] = Volume of distribution in rat at […], iv; assay type: ADME, organism-based; details: in vivo
[7] = AUC in rat at 5 mg/kg, po; assay type: ADME, organism-based; parameters: dose 5 mg/kg, route oral; details: plasma
[8] = Half life in monkey liver microsomes; assay type: ADME, Macaca mulatta, Microsome; details: rhesus monkey
[9] = Half life in human liver microsomes; assay type: ADME, Microsome
CYP1A2 = target: T2, CYP1A2 (Homo sapiens, UniProt P05177); assay: (§1) Inhibition of CYP1A2; assay type: ADME
T2 sequence (P05177 whole entry): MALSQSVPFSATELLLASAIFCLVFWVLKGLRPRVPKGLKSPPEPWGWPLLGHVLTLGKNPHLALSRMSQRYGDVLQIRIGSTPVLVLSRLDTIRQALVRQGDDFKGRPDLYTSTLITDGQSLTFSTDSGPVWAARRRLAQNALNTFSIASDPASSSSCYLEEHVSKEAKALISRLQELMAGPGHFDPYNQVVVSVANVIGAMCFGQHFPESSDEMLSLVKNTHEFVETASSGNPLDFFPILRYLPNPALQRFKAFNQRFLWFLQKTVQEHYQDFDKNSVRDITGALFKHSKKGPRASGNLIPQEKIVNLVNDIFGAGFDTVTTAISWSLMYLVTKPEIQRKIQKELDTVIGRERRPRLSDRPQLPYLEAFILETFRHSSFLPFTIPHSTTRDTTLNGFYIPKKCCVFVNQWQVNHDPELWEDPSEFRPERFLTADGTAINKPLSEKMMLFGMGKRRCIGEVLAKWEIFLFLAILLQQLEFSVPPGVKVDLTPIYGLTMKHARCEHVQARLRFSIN

CYP2C9 = CYP2C9 (Homo sapiens, UniProt P11712); assay: (§2) Inhibition of CYP2C9; assay type: ADME
Caco-2 = assay: Permeability across human Caco2 cells; assay type: ADME, cell-based
hERG (KCNH2) = hERG (KCNH2) (Homo sapiens, UniProt Q12809); assay: Inhibition of human ERG at 10 uM
CYP2C19 = CYP2C19 (Homo sapiens, UniProt P33261); assay: (§3) Inhibition of CYP2C19; assay type: ADME
[10] = target: Histamine H2 receptor (Homo sapiens) (UniProt P25021); assay: Inhibition of human histamine H2 receptor at 10 uM
[11] = Plasma protein binding in human; assay type: ADME, cell-free; details: read-out: PPB
CYP3A4 = CYP3A4 (Homo sapiens, UniProt P08684); assay: (§4) Inhibition of CYP3A4; assay type: ADME
[12] = Cmax in rat at 5 mg/kg, po; assay type: ADME, organism-based; parameters: dose 5 mg/kg, route oral; details: in vivo
[13] = Half life in mouse liver microsomes; assay type: ADME, Microsome
[14] = Half life in rat at […], iv; assay type: ADME, organism-based; details: in vivo
[15] = Clearance in rat at […], iv; assay type: ADME, organism-based; details: in vivo
CYP2D6 = CYP2D6 (Homo sapiens, UniProt P10635); assay: (§5) Inhibition of CYP2D6; assay type: ADME
[16] = Ratio of drug level in brain to plasma in rat at 5 mg/kg, po measured after 6 hrs; assay type: ADME, organism-based; parameters: dose 5 mg/kg, route oral; details: read-out: BPR
[17] = Half life in dog liver microsomes; assay type: ADME, Canis lupus familiaris, Microsome
[18] = Half life in rat liver microsomes; assay type: ADME, Microsome
Cytochrome P450 2D6 = Cytochrome P450 2D6 (Homo sapiens, UniProt P10635); assay: as §5; assay type: ADME
[19] = Oral bioavailability in rat at 5 mg/kg; assay type: ADME, organism-based; details: in vivo
Histamine H3 receptor [20] = target: T1, Histamine H3 receptor; assay: Antagonist activity at human histamine H3 receptor assessed as inhibition of [35S]-GTPgammaS binding; assay type: functional
Histamine H3 receptor [21] = target: T1, Histamine H3 receptor; assay: Inverse agonist activity at human histamine H3 receptor by [35S]-GTPgammaS binding assay; assay type: functional
Cytochrome P450 1A2 = target: T3, Cytochrome P450 1A2 (Homo sapiens, UniProt P05177); assay: as §1; assay type: ADME
T3 sequence (P05177 whole entry): T2 sequence (P05177 whole entry)

Cytochrome P450 2C9 = Cytochrome P450 2C9 (Homo sapiens, UniProt P11712); assay: as §2; assay type: ADME
Cytochrome P450 2C19 = Cytochrome P450 2C19 (Homo sapiens, UniProt P33261); assay: as §3; assay type: ADME
Cytochrome P450 3A4 = Cytochrome P450 3A4 (Homo sapiens, UniProt P08684); assay: as §4; assay type: ADME
Rattus norvegicus [22] = assay: Wake promoting activity in EEG/EMG Sprague-Dawley rat model at 30 mg/kg, ip measured after 4 hrs relative to vehicle-treated control; assay type: functional; details: route intraperitoneal
Rattus norvegicus [23] = assay: Inhibition of RAMH-induced dipsogenia in ip dosed rat; assay type: functional
Rattus norvegicus [24] = assay: Wake promoting activity in EEG/EMG Sprague-Dawley rat model assessed as maximal cumulative wake surplus time at 10 to 30 mg/kg, ip measured after 9 hrs; assay type: functional; details: dose mg/kg 10-30; route intraperitoneal
Rattus norvegicus [25] = assay: Wake promoting activity in EEG/EMG Sprague-Dawley rat model assessed as wake time at 30 mg/kg, ip measured up to 4 hrs (reference value: 85 +/- 9 mins); assay type: functional; details: route intraperitoneal
Rattus norvegicus [26] = assay: Wake promoting activity in EEG/EMG Sprague-Dawley rat model assessed as wake time at 10 mg/kg, ip measured up to 4 hrs (reference value: 85 +/- 9 mins); assay type: functional; details: route intraperitoneal
Rattus norvegicus [27] = assay: Wake promoting activity in EEG/EMG Sprague-Dawley rat model assessed as cumulative wake time at 30 mg/kg, ip measured after 5 hrs relative to control; assay type: functional; details: route intraperitoneal
Rattus norvegicus [28] = assay: Wake promoting activity in EEG/EMG Sprague-Dawley rat model assessed as sleep rebound at 10 to 30 mg/kg, ip; assay type: functional, organism-based
Rattus norvegicus [29] = assay: Inhibition of RAMH-induced dipsogenia in rat at 1 mg/kg, ip; assay type: functional, organism-based; parameters: dose 1 mg/kg
Rattus norvegicus [30] = assay: Wake promoting activity in EEG/EMG Sprague-Dawley rat model measured up to 4 hrs post dosing; assay type: functional, organism-based
Rattus norvegicus [31] = assay: Wake promoting activity in EEG/EMG Sprague-Dawley rat model at 30 mg/kg, ip measured after 3.5 hrs relative to control; assay type: functional, organism-based; parameters: dose 30 mg/kg

Cytochrome P450 2D6, sequence (P10635 whole entry): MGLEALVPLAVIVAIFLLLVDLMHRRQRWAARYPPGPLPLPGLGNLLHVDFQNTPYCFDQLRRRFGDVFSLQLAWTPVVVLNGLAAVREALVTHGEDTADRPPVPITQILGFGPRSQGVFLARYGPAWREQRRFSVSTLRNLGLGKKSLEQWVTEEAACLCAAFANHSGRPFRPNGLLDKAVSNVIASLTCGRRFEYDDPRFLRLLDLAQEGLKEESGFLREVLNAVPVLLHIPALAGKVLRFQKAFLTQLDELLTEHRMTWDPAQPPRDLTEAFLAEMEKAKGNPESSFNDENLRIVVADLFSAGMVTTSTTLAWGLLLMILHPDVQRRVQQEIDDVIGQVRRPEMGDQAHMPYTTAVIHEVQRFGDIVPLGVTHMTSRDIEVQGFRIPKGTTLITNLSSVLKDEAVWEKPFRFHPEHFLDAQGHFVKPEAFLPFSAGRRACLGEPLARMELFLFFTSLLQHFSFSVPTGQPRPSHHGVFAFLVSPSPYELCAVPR
Histamine H3 receptor (Rattus norvegicus, UniProt Q9QYN8), sequence (Q9QYN8 whole entry): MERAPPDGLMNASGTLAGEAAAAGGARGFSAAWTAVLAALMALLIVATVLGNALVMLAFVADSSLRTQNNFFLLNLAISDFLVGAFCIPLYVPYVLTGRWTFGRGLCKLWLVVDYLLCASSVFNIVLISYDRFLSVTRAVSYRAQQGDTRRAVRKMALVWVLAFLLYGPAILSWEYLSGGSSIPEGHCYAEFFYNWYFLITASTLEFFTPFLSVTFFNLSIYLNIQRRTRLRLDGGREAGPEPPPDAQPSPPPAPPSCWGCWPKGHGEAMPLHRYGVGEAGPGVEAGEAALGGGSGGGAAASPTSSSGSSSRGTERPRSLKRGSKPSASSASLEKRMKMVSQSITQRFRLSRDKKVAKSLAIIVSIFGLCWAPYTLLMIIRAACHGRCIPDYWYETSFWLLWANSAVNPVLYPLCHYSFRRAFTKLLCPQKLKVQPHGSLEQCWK
T1 sequence (Q9Y5N1 whole entry): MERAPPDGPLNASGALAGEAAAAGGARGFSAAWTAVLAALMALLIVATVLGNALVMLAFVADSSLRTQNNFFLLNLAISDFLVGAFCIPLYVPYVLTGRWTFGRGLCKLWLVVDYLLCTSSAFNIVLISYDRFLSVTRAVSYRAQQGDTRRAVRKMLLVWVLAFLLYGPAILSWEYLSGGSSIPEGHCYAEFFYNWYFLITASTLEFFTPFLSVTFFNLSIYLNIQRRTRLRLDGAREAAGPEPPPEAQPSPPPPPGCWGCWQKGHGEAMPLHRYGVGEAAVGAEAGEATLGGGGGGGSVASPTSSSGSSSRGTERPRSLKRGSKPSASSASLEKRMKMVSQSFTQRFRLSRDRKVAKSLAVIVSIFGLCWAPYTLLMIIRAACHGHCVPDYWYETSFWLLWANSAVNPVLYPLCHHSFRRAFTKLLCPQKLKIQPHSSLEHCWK
Cytochrome P450 3A4, sequence (P08684 whole entry): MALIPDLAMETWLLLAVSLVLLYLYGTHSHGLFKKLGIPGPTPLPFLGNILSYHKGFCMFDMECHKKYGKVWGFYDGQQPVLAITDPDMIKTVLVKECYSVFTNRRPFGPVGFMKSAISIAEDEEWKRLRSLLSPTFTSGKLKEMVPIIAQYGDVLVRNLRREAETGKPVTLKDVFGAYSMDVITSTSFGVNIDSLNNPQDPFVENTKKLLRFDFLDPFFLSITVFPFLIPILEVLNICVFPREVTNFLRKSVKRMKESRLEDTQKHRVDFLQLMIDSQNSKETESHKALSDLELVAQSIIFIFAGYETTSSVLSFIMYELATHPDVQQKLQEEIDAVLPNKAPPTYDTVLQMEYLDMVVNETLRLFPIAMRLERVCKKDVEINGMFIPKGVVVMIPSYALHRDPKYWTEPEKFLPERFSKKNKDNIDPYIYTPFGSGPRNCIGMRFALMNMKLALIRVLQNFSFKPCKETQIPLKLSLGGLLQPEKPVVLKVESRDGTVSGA
Cytochrome P450 2C9, sequence (P11712 whole entry): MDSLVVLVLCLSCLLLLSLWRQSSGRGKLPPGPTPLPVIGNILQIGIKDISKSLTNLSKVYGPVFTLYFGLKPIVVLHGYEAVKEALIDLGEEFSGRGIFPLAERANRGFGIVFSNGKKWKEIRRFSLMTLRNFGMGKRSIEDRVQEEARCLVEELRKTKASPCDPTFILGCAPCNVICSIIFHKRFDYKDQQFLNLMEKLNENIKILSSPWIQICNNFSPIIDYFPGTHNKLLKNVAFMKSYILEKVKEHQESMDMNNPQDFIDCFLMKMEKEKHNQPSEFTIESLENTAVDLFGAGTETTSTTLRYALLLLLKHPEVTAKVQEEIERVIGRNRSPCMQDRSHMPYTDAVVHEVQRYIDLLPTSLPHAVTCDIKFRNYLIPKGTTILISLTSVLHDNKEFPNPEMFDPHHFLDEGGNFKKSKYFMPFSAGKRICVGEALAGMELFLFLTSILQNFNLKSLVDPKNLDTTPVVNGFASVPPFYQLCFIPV
Cytochrome P450 2C19, sequence (P33261 whole entry): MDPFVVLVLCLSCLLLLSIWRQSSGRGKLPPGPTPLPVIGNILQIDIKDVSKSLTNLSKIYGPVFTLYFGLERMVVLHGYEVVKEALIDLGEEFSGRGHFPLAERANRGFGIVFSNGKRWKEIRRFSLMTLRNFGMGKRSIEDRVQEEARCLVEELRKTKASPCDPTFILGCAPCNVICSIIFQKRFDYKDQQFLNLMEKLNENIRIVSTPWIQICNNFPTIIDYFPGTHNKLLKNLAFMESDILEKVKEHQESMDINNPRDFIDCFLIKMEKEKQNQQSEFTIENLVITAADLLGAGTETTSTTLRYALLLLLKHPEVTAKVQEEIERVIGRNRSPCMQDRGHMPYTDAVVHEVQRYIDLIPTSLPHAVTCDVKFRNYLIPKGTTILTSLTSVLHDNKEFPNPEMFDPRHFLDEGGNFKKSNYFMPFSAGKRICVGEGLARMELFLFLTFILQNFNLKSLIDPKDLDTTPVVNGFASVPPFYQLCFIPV
CYP3A4, sequence (P08684 whole entry): as the sequence (P08684 whole entry) above
Histamine H4 receptor (Homo sapiens), sequence (Q9H3N8 whole entry): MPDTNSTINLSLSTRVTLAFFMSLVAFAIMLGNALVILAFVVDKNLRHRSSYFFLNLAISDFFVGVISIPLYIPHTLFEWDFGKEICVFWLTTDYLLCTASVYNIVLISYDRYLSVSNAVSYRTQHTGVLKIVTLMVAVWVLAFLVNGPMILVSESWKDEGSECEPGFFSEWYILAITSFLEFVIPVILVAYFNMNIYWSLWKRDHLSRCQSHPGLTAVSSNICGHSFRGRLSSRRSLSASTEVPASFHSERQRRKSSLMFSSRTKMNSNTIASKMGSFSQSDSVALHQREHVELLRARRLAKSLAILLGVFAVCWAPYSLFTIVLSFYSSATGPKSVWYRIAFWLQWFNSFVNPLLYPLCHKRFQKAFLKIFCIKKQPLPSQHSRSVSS
CYP2D6, sequence (P10635 whole entry): as the sequence (P10635 whole entry) above
Histamine H2 receptor (Homo sapiens), sequence (P25021 whole entry): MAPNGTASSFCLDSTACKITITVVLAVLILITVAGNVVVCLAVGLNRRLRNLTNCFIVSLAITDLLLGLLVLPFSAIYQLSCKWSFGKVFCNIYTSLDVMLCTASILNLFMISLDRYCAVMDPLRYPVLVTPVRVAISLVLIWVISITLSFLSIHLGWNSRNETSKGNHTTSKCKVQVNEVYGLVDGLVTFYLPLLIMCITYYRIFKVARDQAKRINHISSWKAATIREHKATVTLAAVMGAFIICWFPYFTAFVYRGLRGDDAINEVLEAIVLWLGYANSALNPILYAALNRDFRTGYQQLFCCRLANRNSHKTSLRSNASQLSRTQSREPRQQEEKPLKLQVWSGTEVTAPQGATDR
CYP2C9, sequence (P11712 whole entry): as the sequence (P11712 whole entry) above
CYP2C19, sequence (P33261 whole entry): as the sequence (P33261 whole entry) above

SMILES | Ki (Histamine H3 receptor [1]) [nM] | Ki (Histamine H3 receptor [2]) [nM] | Vd [6] [L/kg] | AUC [7] [ng·h/mL] | Cmax [12] [ng/mL] | half-life [14] [min] | clearance [15] [mL/min/kg] | Kp at 6 h [16] | IC50 (Cytochrome P450 2D6) [nM] | bioavailability [19] [%] | further results
C[C@@H]1CCCN1CCCOc1ccc(C(=O)CN2CCN(C(=O)Oc3ccc(F)cc3)CC2)cc1 | 3.7 | 3 |  |  |  |  |  |  |  |  | 
C[C@@H]1CCCN1CCCOc1ccc(C(=O)CN2CCC(C(F)(F)F)CC2)cc1 | 9.1 | 2.5 |  |  |  |  |  |  |  |  | 
C[C@@H]1CCCN1CCCOc1ccc(C(=O)CN2CCOCC2)cc1 |  |  | 27 | 81 | 17 | 138 | 126 | 50 |  |  | inhibition [3]: < 50%; fraction unbound [4]: > 0.8; inhibition [5]: < 50%; half-life [8]: > 40 min; half-life [9]: > 40 min; IC50 (CYP1A2): > 30000 nM; IC50 (CYP2C9): > 30000 nM; permeability (Caco-2): permeable; inhibition at 10 µM (hERG (KCNH2)): 21%; IC50 (CYP2C19): > 30000 nM; inhibition [10]: < 50%; fraction unbound [11]: > 0.8; IC50 (CYP3A4): > 30000 nM; half-life [13]: > 40 min; IC50 (CYP2D6): > 30000 nM; half-life [17]: > 40 min; half-life [18]: > 40 min
C[C@@H]1CCCN1CCCOc1ccc(C(=O)CN2CCC(C#N)CC2)cc1 | 23 | 6.3 |  |  |  |  |  |  |  |  | 
C[C@@H]1CCCN1CCCOc1ccc(C(=O)CN2CCN(S(C)(=O)=O)CC2)cc1 | 26 | 3.4 |  |  |  |  |  | < 0.6 |  |  | 
C[C@@H]1CCCN1CCCOc1ccc(C(=O)CN2CCC(F)(F)C2)cc1 | 21 | 3.4 |  |  |  |  |  |  |  |  | 
CCOC(=O)N1CCN(CC(=O)c2ccc(OCCCN3CCC[C@H]3C)cc2)CC1 | 23 | 4 | 2.8 |  |  | 126 | 16 | 2.4 | 5000 | 33 | 
C[C@@H]1CCCN1CCCOc1ccc(C(=O)CN2CCN(C(=O)c3ccco3)CC2)cc1 | 16 | 2 |  |  |  |  |  | < 0.6 |  |  | 
C[C@@H]1CCCN1CCCOc1ccc(C(=O)CN2CCN(C(=O)c3ccccc3)CC2)cc1 | 14 | 1.9 | 1.4 | 689 | 165 | 72 | 14 | 1.5 | > 30000 | 14 | half-life [8]: > 40 min; Kb (Histamine H3 receptor [20]): 0.8 nM; half-life [9]: > 40 min; EC50 (Histamine H3 receptor [21]): 1 nM; IC50 (Cytochrome P450 1A2): > 30000 nM; IC50 (Cytochrome P450 2C9): > 30000 nM; IC50 (Cytochrome P450 2C19): > 30000 nM; IC50 (Cytochrome P450 3A4): > 30000 nM; half-life [13]: > 40 min; Activity (Rattus norvegicus [22]): 33%; half-life [17]: > 40 min; half-life [18]: > 40 min; ED50 (Rattus norvegicus [23]): 0.43 mg/kg; inhibition (Rattus norvegicus [23]): Dose-dependent effect
C[C@@H]1CCCN1CCCOc1ccc(C(=O)CN2CCC(F)(F)CC2)cc1 | 43 | 11 | 2.2 | 266 | 66 | 30 | 53 | 25 | > 30000 | 15 | Time (Rattus norvegicus [24]): 46 min; Time (Rattus norvegicus [25]): 195 min; Time (Rattus norvegicus [26]): 150 min; Time (Rattus norvegicus [27]): 113 min; Kb (Histamine H3 receptor [20]): 3.7 nM; EC50 (Histamine H3 receptor [21]): 1.8 nM; Activity (Rattus norvegicus [28]): inactive; IC50 (Cytochrome P450 1A2): > 30000 nM; IC50 (Cytochrome P450 2C9): > 30000 nM; IC50 (Cytochrome P450 2C19): > 30000 nM; inhibition (Rattus norvegicus [29]): Active; IC50 (Cytochrome P450 3A4): > 30000 nM; Activity (Rattus norvegicus [30]): Dose-dependent effect; Activity (Rattus norvegicus [31]): Active
